Laboratory results from ChEMBL document CHEMBL3603759, “Ribosome-targeting antibiotics as inhibitors of oncogenic microRNAs biogenesis: Old scaffolds for new perspectives in RNA targeting” (Bioorg Med Chem, 2015).
pIC50, pKd: −log10 of the molar value. Calls of active or inactive are those of the source. The calls are words filed in the database; no cut-off is given here.

Key:
[1] = Inhibition of pre-miR-372 (unknown origin) cleavage assessed as reduction of oncogenic microRNAs biogenesis at 200 uM by measuring fluorescence every minute for 5 hrs using 5'-FAM,3'-dabcyl-pre-miRNA beacons by FRET assay in presence of recombinant Dicer
[2] = Inhibition of pre-miR-373 (unknown origin) cleavage assessed as reduction of oncogenic microRNAs biogenesis at 200 uM by measuring fluorescence every minute for 5 hrs using 5'-FAM,3'-dabcyl-pre-miRNA beacons by FRET assay in presence of recombinant Dicer
[3] = Inhibition of pre-miR-17 (unknown origin) cleavage assessed as reduction of oncogenic microRNAs biogenesis at 200 uM by measuring fluorescence every minute for 5 hrs using 5'-FAM,3'-dabcyl-pre-miRNA beacons by FRET assay in presence of recombinant Dicer
[4] = Inhibition of pre-miR-21 (unknown origin) cleavage assessed as reduction of oncogenic microRNAs biogenesis at 200 uM by measuring fluorescence every minute for 5 hrs using 5'-FAM,3'-dabcyl-pre-miRNA beacons by FRET assay in presence of recombinant Dicer
[5] = Inhibition of pre-miR-372 (unknown origin) cleavage assessed as reduction of oncogenic microRNAs biogenesis by measuring fluorescence every minute for 5 hrs using 5'-FAM,3'-dabcyl-pre-miRNA beacons by FRET assay in presence of recombinant Dicer
[6] = Inhibition of pre-miR-17 (unknown origin) cleavage assessed as reduction of oncogenic microRNAs biogenesis by measuring fluorescence every minute for 5 hrs using 5'-FAM,3'-dabcyl-pre-miRNA beacons by FRET assay in presence of recombinant Dicer
[7] = Inhibition of pre-miR-373 (unknown origin) cleavage assessed as reduction of oncogenic microRNAs biogenesis by measuring fluorescence every minute for 5 hrs using 5'-FAM,3'-dabcyl-pre-miRNA beacons by FRET assay in presence of recombinant Dicer
[8] = Inhibition of pre-miR-21 (unknown origin) cleavage assessed as reduction of oncogenic microRNAs biogenesis by measuring fluorescence every minute for 5 hrs using 5'-FAM,3'-dabcyl-pre-miRNA beacons by FRET assay in presence of recombinant Dicer
[9] = Binding affinity to 5'-FAM-pre-miR-372 (unknown origin) after 4 hrs by fluorescence assay; conditions: read-out: Kd
[10] = Binding affinity to 5'-FAM-pre-miR-17 (unknown origin) after 4 hrs by fluorescence assay; conditions: read-out: Kd
[11] = Binding affinity to 5'-FAM-pre-miR-373 (unknown origin) after 4 hrs by fluorescence assay; conditions: read-out: Kd
[12] = Binding affinity to 5'-FAM-pre-miR-372 (unknown origin) after 4 hrs by fluorescence assay in presence of 100-fold excess of Escherichia coli tRNA
[13] = Ratio of Kd for 5'-FAM-pre-miR-372 (unknown origin) in presence of 100-fold excess of Escherichia coli tRNA to Kd for 5'-FAM-pre-miR-372 (unknown origin)
[14] = Binding affinity to 5'-FAM-pre-miR-372 (unknown origin) after 4 hrs by fluorescence assay in presence of 100-fold excess of 15-mer DNA
[15] = Ratio of Kd for 5'-FAM-pre-miR-372 (unknown origin) in presence of 100-fold excess of 15-mer DNA to Kd for 5'-FAM-pre-miR-372 (unknown origin)
[16] = Inhibition of pre-miR-372 (unknown origin) cleavage at C27 at 10 to 100 uM after 15 mins by RNase footprinting assay in presence of RNase-V1
[17] = Inhibition of pre-miR-372 (unknown origin) cleavage at U15-G16-G17-A18 at 10 to 100 uM after 15 mins by RNase footprinting assay in presence of RNase-V1
[18] = Inhibition of pre-miR-372 (unknown origin) cleavage at A10-A11 at 10 to 100 uM after 15 mins by RNase footprinting assay in presence of RNase-V1
[19] = Inhibition of pre-miR-372 (unknown origin) cleavage at 10 to 100 uM after 15 mins by RNase footprinting assay in presence of RNase-S1
[20] = Inhibition of pre-miR-372 (unknown origin) cleavage at A24 at 1 to 100 uM after 2 hrs by denaturing gel electrophoresis in presence of recombinant Dicer
[21] = Inhibition of pre-miR-372 (unknown origin) cleavage at A42 at 1 to 100 uM after 2 hrs by denaturing gel electrophoresis in presence of recombinant Dicer
[22] = Inhibition of pre-miR-372 (unknown origin) cleavage at U28 at 1 to 100 uM after 2 hrs by denaturing gel electrophoresis in presence of recombinant Dicer
[23] = Binding affinity to 5'-FAM-pre-miR-372 (unknown origin) assessed as change in total free energy by thermodynamic assay
[24] = Inhibition of pre-miR-372 (unknown origin) cleavage at 1 to 100 uM after 15 mins by RNase footprinting assay in presence of RNase-V1
[25] = Inhibition of pre-miR-372 (unknown origin) cleavage at U31, G32 and U33 at 1 to 100 uM after 15 mins by RNase footprinting assay in presence of RNase-S1

| inhibition [1] [%] | inhibition [2] [%] | inhibition [3] [%] | inhibition [4] [%] | pIC50 [5] | pIC50 [6] | pIC50 [7] | pIC50 [8] | pKd [9] | pKd [10] | pKd [11] | Ratio [13] | pKd [14] | Ratio [15] | inhibition [20] | inhibition [21] | inhibition [22] | Activity [23] [%] | SMILES | pKd [12] | also measured |
| --- | --- | --- | --- | --- | --- | --- | --- | --- | --- | --- | --- | --- | --- | --- | --- | --- | --- | --- | --- | --- |
| 60 | 60 | 60 | 60 | 4.05 | 4.03 | 3.84 | 4.12 | 4.94 | 5.73 | 4.82 | 1 | 4.95 | 1 | Active | Active | Active | 70 | NC[C@@H]1O[C@H](O[C@H]2[C@@H](O)[C@H](O[C@@H]3[C@@H](O)[C@H](N)C[C@H](N)[C@H]3O[C@H]3O[C@H](CN)[C@@H](O)[C@H](O)[C@H]3N)O[C@@H]2CO)[C@H](N)[C@@H](O)[C@@H]1O [FRAMYCETIN] | 4.93 | inhibition [16]: Active; inhibition [17]: Active; inhibition [18]: Active; inhibition [19]: inactive |
| 30 | 30 | 30 | 30 | 3.40 | 3.89 | 3.49 | 3.43 | 6.21 | 6.19 | 6.22 | 3.2 | 5.84 | 2.4 | inactive | inactive | inactive | 91 | CN(C)c1ccc(O)c2c1C[C@H]1C[C@H]3[C@H](N(C)C)C(O)=C(C(N)=O)C(=O)[C@@]3(O)C(O)=C1C2=O [MINOCYCLINE] | 5.70 | inhibition [24]: inactive; inhibition [25]: Active |
